Measurements as given in patent publication US5473039A, “Polypeptide analogs of apolipoprotein E, diagnostic systems and methods using the analogs” (The Scripps Research Institute, priority 1991, dated 1995).

Experiments:
[1] = molecular target: LDL receptor (Homo sapiens, UniProt P01130); assay: fibroblast 125I-LDL degradation; type: cell-based; design: transferred to DMEM medium with 10% lipoprotein-depleted serum (LPDS) for 48 hr to upregulate the LDL receptors; endogenous in cells; host or cells: normal fibroblasts; conditions: low concentrations of the tandem peptide
Sequence of LDL receptor (P01130 22-860): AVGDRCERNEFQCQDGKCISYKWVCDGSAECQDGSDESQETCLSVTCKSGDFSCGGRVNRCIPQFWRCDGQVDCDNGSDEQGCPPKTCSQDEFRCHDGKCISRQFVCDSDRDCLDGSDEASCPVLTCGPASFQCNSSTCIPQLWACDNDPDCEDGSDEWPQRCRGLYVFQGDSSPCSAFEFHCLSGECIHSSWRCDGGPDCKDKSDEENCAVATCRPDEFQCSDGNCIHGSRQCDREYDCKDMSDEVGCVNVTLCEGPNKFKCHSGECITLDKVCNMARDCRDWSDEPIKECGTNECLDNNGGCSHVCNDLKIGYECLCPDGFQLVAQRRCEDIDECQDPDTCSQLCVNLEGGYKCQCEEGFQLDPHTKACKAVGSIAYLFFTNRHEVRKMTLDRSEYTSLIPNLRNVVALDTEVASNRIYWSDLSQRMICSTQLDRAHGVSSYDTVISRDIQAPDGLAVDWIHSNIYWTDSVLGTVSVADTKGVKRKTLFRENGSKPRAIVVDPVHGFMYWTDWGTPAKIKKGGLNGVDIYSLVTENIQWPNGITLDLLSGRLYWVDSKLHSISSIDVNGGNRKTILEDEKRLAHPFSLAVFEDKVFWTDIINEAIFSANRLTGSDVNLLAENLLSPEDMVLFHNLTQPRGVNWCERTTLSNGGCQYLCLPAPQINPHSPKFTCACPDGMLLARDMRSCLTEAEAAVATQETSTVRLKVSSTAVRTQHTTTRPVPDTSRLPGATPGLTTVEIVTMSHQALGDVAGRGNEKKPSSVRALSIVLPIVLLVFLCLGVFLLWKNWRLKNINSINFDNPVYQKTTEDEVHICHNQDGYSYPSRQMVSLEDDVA
Protocol: A trimer of the p141-155 peptide, p(141-155)3, was synthesized as in Example 1 and its activity compared with p(141-155) (monomeric) and with p(141-155)2 (dimeric) peptide. Normal fibroblasts were plated in wells of a 96-well culture plate and grown for 96 hr in DMEM medium with 10% FBS. The cells were transferred to DMEM medium with 10% LPDS for 48 hr to up regulate the LDL receptors. The LDL degradation assay was performed according to Example 9 with 2 μg/ml of ^125 I-LDL (300-500 cpm/ng) in 0.2 ml/well in DMEM medium with 10% LPDS and incubated for 5 hr at 37° C. The supernatants removed from the wells were extracted with 10% TCA. The TCA soluble counts were normalized to protein content per well as measured by the Bio-Rad protein assay.

[2] = tested on: Human peripheral blood mononuclear (PBM) cells; assay: PHA-stimulated lymphocyte proliferation (3H-thymidine uptake); type: cell-based; conditions: Example 17
Text: A lymphocyte cell culture system was used to examine the ability of various polypeptides and conjugates to mimic the ability of Apo E to inhibit lymphocyte differentiation as evidence by proliferation.
Human peripheral blood mononuclear (PBM) cells are isolated from whole blood on a Ficoll-Hypaque gradient. The collected PBMs are washed three times with fresh medium (RPMI-1640 plus 5% fetal bovine serum, glutamine, penicillin, streptomycin and HEPES buffer). After washing, the cells are counted and set at a density of 1×10^5 /ml. For culture, 0.2 ml of the cells are plated per well of a 96-well microtiter plate. The peptide or conjugate is added to the wells in a 50 ul volume that can be either filter or UV sterilized. The typical timing for this experiment is to expose the cells to the Apo E polypeptide or self-conjugate over night. PHA, the mitogen that stimulates lymphocyte growth and proliferation, is added the next day. Forty-eight hours after the addition of PHA, 1 uCi of ^3 H-thymidine is added per well in a 1 ul volume and 18-24 hours later the cells are harvested on a mash. The mash cell harvester functions to collect the cells on filter paper where they are washed with buffer to remove free ^3 H-thymidine. The filter papers are dried, put into scintillation vials with scintillation cocktail and the B emissions obtained. Each data point collected represents the average thymidine uptake in four wells, and the standard error was less than 10% for all data points.
Various concentrations of various Apo E peptide were added to cultures that contained 8×10^5 peripheral blood mononuclear cells per ml. The cells were cultured at 37C and RPMI with 5% serum. All cells were exposed to PHA at 24 hours, labeled with 3H-thymidine at 72 hours and harvested at 90 hours. The counts per minute (cpm) of 3H-thymidine in the harvested cells was measured, and the data are expressed as the mean of four wells per treatment as a measure of thymidine uptake (x 1000 cpm). The standard deviation was less than 10% for all means.

[3] = tested on: ovarian theca/interstitial cells; assay: ovarian androgen (androstenedione) production, LH-stimulated cultures; type: cell-based, rats; conditions: 48 hours
Text: The cell system used to examine the effect of various peptides and conjugates on ovarian androgen production was that described by Curtiss et al., J. Biol. Chem., 263:10965, (1988). Briefly, hypophysectomized (pituitary removed) immature female rats are sacrificed by cervical dislocation. The ovaries taken from the rats were trimmed free of fat and other non-ovarian tissues, cut into approximately six to eight pieces per ovary and dissociated in a solution of collagenase Dnaase which degrades the connective tissue releasing cell clusters. Approximately one to two hours of 37C incubation is required to dissociate the tissue. The cells were washed three times with fresh McCoy's 5A modified medium supplemented with glutamine and penicillin/streptomycin. No serum was added to this medium. The cells were cultured over night in 10 ml of medium in a T-25 flask to allow the non-steroidogenic cells to adhere. The next day non-adherent cells were recovered, washed three times with fresh media, counted and plated at a density of 1×10^3/ ml aliquotting 0.2 ml per well of a 96-well microtiter plate. All media in the experiment contains luteinizing hormone (LH) at 4 ng/ml and human high density lipoprotein (HDL) at 300 μg protein/mi. Monomeric peptides, peptide-BSA conjugates and self-conjugated peptide preparations at various concentrations (0.2 to 50 μg/ml) were added to the cells. The cells were then cultured for 48 hours at 37C, the supernatants were recovered, transferred to a clean 96-well microtiter plate and kept at -20C until the concentrations of androstenedione and progesterone were measured by radioimmunoassay. Each data point represents the average of measured androstenedione concentrations in four wells per treatment, and the standard error was less than 10% for all data points.
The ability of tandem Apo E peptide p(141-155)2 and self-conjugates of this peptide to affect ovarian androgen production was examined using the assay described in Example 4. […] After 48 hours of culture, the supernatants were collected, the androstenedione concentration measured by radioimmunoassay. […]

- effect on LDL degradation by fibroblasts [1]: significant enhancement
SMILES: CC(C)C[C@H](NC(=O)[C@H](CC(=O)O)NC(=O)[C@H](CC(=O)O)NC(=O)[C@H](C)NC(=O)[C@H](CC(=O)O)NC(=O)[C@H](CCCNC(=N)N)NC(=O)[C@H](CC(C)C)NC(=O)[C@H](CC(C)C)NC(=O)[C@H](CCCNC(=N)N)NC(=O)[C@H](CCCCN)NC(=O)[C@H](CCCNC(=N)N)NC(=O)[C@H](CC(C)C)NC(=O)[C@H](CCCCN)NC(=O)[C@H](CCCNC(=N)N)NC(=O)[C@H](CC(C)C)NC(=O)[C@H](CC(C)C)NC(=O)[C@H](CC(=O)O)NC(=O)[C@H](CC(=O)O)NC(=O)[C@H](C)NC(=O)[C@H](CC(=O)O)NC(=O)[C@H](CCCNC(=N)N)NC(=O)[C@H](CC(C)C)NC(=O)[C@H](CC(C)C)NC(=O)[C@H](CCCNC(=N)N)NC(=O)[C@H](CCCCN)NC(=O)[C@H](CCCNC(=N)N)NC(=O)[C@H](CC(C)C)NC(=O)[C@H](CCCCN)NC(=O)[C@H](CCCNC(=N)N)NC(=O)[C@@H](N)CC(C)C)C(=O)O [p(141-155)2]
- ED50 or dose of peptide required to inhibit lymphocyte proliferation 50% [2]: 20 µM
- concentrations at which androstenedione production was enhanced [3]: less than 0.04 μg/ml
- concentrations that inhibited androstenedione production ([3]; dose-dependent): 0.2 to 2 µg/mL
